What was measured:
[1] = biological target: Carboxylic ester hydrolase (Equus caballus, UniProt Q9N1N9); experiment: AChE and BChE Inhibition Assay; details: pH 8; 25 °C
Description: (§1) To evaluate in vitro AChE activity, modified Ellman's method was performed using a 96-well plate reader (BioTek ELx808, Highland Park, IL, USA). Each well contained 50 µL potassium phosphate buffer (KH2PO4/K2HPO4, 0.1 M, pH 8), 25 µL sample dissolved in 50% methanol and 50% DMSO, and 25 µL enzyme (final concentration 0.22 U/mL in buffer). They were preincubated for 20 min at room temperature, and then, 125 µL DTNB (3 mM in buffer) was added. […] The IC50 values were determined graphically from inhibition curves (log inhibitor concentration versus percent of inhibition). A control experiment was performed under the same conditions without inhibitor and the blank contained buffer, DMSO, DTNB, and substrate. The described method was also used for BChE inhibition assa

Acetylcholinesterase = Acetylcholinesterase (Electrophorus electricus, UniProt O42275); experiment: AChE and BChE Inhibition Assay; details: pH 8; 25 °C
Description: as §1

Acetylcholinesterase, sequence (O42275 whole entry): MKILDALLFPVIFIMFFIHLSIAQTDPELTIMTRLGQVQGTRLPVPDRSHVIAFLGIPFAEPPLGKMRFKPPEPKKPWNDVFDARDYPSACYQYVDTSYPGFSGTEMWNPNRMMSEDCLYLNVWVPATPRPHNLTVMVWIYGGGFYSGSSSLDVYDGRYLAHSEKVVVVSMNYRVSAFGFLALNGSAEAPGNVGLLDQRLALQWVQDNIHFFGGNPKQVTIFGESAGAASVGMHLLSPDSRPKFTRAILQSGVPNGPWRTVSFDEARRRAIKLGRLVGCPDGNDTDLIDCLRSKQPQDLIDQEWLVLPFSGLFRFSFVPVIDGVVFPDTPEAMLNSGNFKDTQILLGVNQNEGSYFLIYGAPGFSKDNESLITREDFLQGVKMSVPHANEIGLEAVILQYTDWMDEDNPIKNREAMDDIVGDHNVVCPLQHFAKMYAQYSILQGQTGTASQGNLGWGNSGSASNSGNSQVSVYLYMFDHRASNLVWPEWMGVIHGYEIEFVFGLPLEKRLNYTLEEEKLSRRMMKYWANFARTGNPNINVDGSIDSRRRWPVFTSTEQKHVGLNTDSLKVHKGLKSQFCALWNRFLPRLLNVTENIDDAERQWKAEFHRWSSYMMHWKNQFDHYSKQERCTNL
Carboxylic ester hydrolase, sequence (Q9N1N9 whole entry): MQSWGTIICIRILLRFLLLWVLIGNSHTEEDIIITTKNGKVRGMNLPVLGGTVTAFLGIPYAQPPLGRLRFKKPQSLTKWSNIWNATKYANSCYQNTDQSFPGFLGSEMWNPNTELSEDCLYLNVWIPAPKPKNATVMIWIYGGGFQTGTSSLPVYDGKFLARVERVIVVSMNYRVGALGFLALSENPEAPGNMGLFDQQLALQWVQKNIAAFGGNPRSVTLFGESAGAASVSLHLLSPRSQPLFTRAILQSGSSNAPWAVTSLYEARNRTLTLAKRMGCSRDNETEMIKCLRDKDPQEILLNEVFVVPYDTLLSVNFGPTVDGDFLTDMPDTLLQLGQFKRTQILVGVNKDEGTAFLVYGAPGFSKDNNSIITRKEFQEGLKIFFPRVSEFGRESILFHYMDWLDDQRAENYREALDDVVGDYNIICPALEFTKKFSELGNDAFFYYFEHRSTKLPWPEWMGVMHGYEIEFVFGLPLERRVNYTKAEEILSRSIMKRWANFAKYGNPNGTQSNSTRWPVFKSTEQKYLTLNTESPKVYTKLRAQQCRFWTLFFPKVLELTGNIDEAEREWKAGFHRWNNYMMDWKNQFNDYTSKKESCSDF

Structure (SMILES)	IC50 [1]	IC50 (Acetylcholinesterase)
O=c1c2ccccc2n(Cc2cn(Cc3nc(-c4ccc(Cl)cc4)no3)nn2)c2ccc(Br)cc12 [2-Bromo-10-((1-((3-(4-chlorophenyl)-1,2,4-oxadiazol-5-yl)methyl)-1H-1,2,3-triazol-4-yl)methyl)acridin-9(10H)-one (10p)]	> 100 µM	> 100 µM
COc1ccc(-c2noc(Cn3cc(Cn4c5ccccc5c(=O)c5cc(Br)ccc54)nn3)n2)cc1 [2-Bromo-10-((1-((3-(4-methoxyphenyl)-1,2,4-oxadiazol-5-yl)methyl)-1H-1,2,3-triazol-4-yl)methyl)acridin-9(10H)-one (10o)]	> 100 µM	> 100 µM
O=c1c2ccccc2n(Cc2cn(Cc3nc(-c4ccc(Cl)cc4)no3)nn2)c2ccc(Cl)cc12 [2-Chloro-10-((1-((3-(4-chlorophenyl)-1,2,4-oxadiazol-5-yl)methyl)-1H-1,2,3-triazol-4-yl)methyl)acridin-9(10H)-one (10n)]	> 100 µM	44.9 µM
COc1ccc(-c2noc(Cn3cc(Cn4c5ccccc5c(=O)c5cc(Cl)ccc54)nn3)n2)cc1 [2-Chloro-10-((1-((3-(4-methoxyphenyl)-1,2,4-oxadiazol-5-yl)methyl)-1H-1,2,3-triazol-4-yl)methyl)acridin-9(10H)-one (10m)]	> 100 µM	> 100 µM
Cc1ccc(-c2noc(Cn3cc(Cn4c5ccccc5c(=O)c5cc(Cl)ccc54)nn3)n2)cc1 [2-Chloro-10-((1-((3-(p-tolyl)-1,2,4-oxadiazol-5-yl)methyl)-1H-1,2,3-triazol-4-yl)methyl)acridin-9(10H)-one (10l)]	> 100 µM	> 100 µM
COc1ccc(-c2noc(Cn3cc(Cn4c5ccccc5c(=O)c5cc(OC)ccc54)nn3)n2)cc1 [2-Methoxy-10-((1-((3-(4-methoxyphenyl)-1,2,4-oxadiazol-5-yl)methyl)-1H-1,2,3-triazol-4-yl)methyl)acridin-9(10H)-one (10j)]	> 100 µM	> 100 µM
COc1ccc2c(c1)c(=O)c1ccccc1n2Cc1cn(Cc2nc(-c3ccc(C)cc3)no2)nn1 [2-Methoxy-10-((1-((3-(p-tolyl)-1,2,4-oxadiazol-5-yl)methyl)-1H-1,2,3-triazol-4-yl)methyl)acridin-9(10H)-one (10i)]	> 100 µM	> 100 µM
COc1ccc(-c2noc(Cn3cc(Cn4c5ccccc5c(=O)c5cccc(Cl)c54)nn3)n2)cc1 [4-Chloro-10-((1-((3-(4-methoxyphenyl)-1,2,4-oxadiazol-5-yl)methyl)-1H-1,2,3-triazol-4-yl)methyl)acridin-9(10H)-one (10g)]	> 100 µM	> 100 µM
COc1ccc(-c2noc(Cn3cc(Cn4c5ccccc5c(=O)c5cccc(OC)c54)nn3)n2)cc1 [4-Methoxy-10-((1-((3-(4-methoxyphenyl)-1,2,4-oxadiazol-5-yl)methyl)-1H-1,2,3-triazol-4-yl)methyl)acridin-9(10H)-one (10f)]	> 100 µM	> 100 µM
COc1cccc2c(=O)c3ccccc3n(Cc3cn(Cc4nc(-c5ccc(C)cc5)no4)nn3)c12 [4-Methoxy-10-((1-((3-(p-tolyl)-1,2,4-oxadiazol-5-yl)methyl)-1H-1,2,3-triazol-4-yl)methyl)acridin-9(10H)-one (10e)]	> 100 µM	> 100 µM
O=c1c2ccccc2n(Cc2cn(Cc3nc(-c4ccc(Br)cc4)no3)nn2)c2ccccc12 [10-((1-((3-(4-Bromophenyl)-1,2,4-oxadiazol-5-yl)methyl)-1H-1,2,3-triazol-4-yl)methyl)acridin-9(10H)-one (10d)]	> 100 µM	67.4 µM
COc1ccc2c(c1)c(=O)c1ccccc1n2Cc1cn(Cc2nc(-c3ccc(Cl)cc3)no2)nn1 [10-((1-((3-(4-Chlorophenyl)-1,2,4-oxadiazol-5-yl)methyl)-1H-1,2,3-triazol-4-yl)methyl)-2-methoxyacridin-9(10H)-one (10k)]	> 100 µM	77.8 µM
Cc1ccc2c(c1)c(=O)c1ccccc1n2Cc1cn(Cc2nc(-c3ccc(Cl)cc3)no2)nn1 [10-((1-((3-(4-Chlorophenyl)-1,2,4-oxadiazol-5-yl)methyl)-1H-1,2,3-triazol-4-yl)methyl)-2-methylacridin-9(10H)-one (10h)]	> 100 µM	> 100 µM
O=c1c2ccccc2n(Cc2cn(Cc3nc(-c4ccc(Cl)cc4)no3)nn2)c2ccccc12 [10-((1-((3-(4-Chlorophenyl)-1,2,4-oxadiazol-5-yl)methyl)-1H-1,2,3-triazol-4-yl)methyl)acridin-9(10H)-one (10c)]	88.9 µM	24.7 µM
COc1ccc(-c2noc(Cn3cc(Cn4c5ccccc5c(=O)c5ccccc54)nn3)n2)cc1 [10-((1-((3-(4-Methoxyphenyl)-1,2,4-oxadiazol-5-yl)methyl)-1H-1,2,3-triazol-4-yl)methyl)acridin-9(10H)-one (10b)]	> 100 µM	11.5 µM
Cc1ccc(-c2noc(Cn3cc(Cn4c5ccccc5c(=O)c5ccccc54)nn3)n2)cc1 [10-((1-((3-(p-Tolyl)-1,2,4-oxadiazol-5-yl)methyl)-1H-1,2,3-triazol-4-yl)methyl)acridin-9(10H)-one (10a)]	> 100 µM	49 µM

— BindingDB's records for doi:10.1111/cbdd.12609 (Tehran University of Medical Sciences, 2015)
